Reference: US9765037B2, “Compositions and methods for treating toxoplasmosis, cryptosporidiosis, and other apicomplexan protozoan related diseases” (University of Washington Through its Center for …, priority 2010, dated 2017)
Like-named read-outs stand apart in the source and are kept apart here.

How the values were obtained:
TgCDPK1 = TgCDPK1 (Toxoplasma gondii, UniProt Q9BJF5); format: biochemical
CpCDPK1 = CpCDPK1 (Cryptosporidium parvum (strain Iowa II), UniProt A3FQ16); experiment: biochemical; format: biochemical
Chain of CpCDPK1 (A3FQ16 1-538): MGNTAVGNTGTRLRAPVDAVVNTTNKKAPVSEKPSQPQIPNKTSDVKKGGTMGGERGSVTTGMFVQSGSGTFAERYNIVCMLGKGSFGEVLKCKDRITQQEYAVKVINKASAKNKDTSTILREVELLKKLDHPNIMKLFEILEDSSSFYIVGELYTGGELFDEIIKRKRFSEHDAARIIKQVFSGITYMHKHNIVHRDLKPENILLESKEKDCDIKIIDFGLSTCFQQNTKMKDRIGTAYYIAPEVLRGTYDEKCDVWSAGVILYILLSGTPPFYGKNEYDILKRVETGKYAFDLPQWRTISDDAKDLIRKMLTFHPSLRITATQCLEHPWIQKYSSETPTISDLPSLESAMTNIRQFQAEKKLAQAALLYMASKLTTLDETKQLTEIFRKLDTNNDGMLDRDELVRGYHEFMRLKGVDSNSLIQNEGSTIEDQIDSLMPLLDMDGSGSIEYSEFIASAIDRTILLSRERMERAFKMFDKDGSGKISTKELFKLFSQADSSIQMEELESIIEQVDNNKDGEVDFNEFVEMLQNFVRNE

PfCDPK1 = PfCDPK1 (Plasmodium falciparum (isolate 3D7), UniProt P62344); experiment: biochemical
PfCDPK4 = PfCDPK4 (Plasmodium falciparum (isolate 3D7), UniProt Q8IBS5); experiment: biochemical
[1] = Table 8, read-out: IC50 (μM) CpCDPK1

Chain of TgCDPK1 (Q9BJF5 1-507): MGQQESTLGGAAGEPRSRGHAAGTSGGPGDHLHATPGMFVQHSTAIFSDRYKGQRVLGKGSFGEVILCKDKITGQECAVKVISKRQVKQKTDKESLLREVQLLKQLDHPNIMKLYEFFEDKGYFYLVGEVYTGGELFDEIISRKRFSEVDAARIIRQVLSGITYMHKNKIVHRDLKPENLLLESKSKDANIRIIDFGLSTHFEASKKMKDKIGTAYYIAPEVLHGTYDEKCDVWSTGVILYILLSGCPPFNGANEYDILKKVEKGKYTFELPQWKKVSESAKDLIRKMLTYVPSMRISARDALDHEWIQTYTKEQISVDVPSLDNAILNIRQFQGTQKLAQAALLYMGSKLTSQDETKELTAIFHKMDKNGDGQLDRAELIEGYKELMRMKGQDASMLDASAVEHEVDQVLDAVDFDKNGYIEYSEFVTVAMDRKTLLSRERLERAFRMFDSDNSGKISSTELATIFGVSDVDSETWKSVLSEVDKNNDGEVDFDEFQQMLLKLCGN

Row | Compound | IC50 (TgCDPK1; read-out: IC50 (μM) TgCDPK1) [µM] | IC50 (CpCDPK1; [1]) [µM] | IC50 (CpCDPK1; read-out: CpCDPK1 IC50) [µM] | further results
1 | Nc1ncnc2c1c(Cc1cccc3ccccc13)nn2C1CCCC1 [Compound 13, 1-cyclopentyl-3-(naphthalen-1-ylmethyl)-1H-pyrazolo[3,4-d]pyrimidin-4-amine] | 0.553 | 0.894 |  | 
2 | CC(C)(C)n1nc(-c2ccc(NC(=O)c3ccccc3)cc2)c2c(N)ncnc21 [Compound 65, N-(4-(4-amino-1-tert-butyl-1H-pyrazolo[3,4-d]pyrimidin-3-yl)phenyl)benzamide] | 0.171 | 1.16 |  | EC50 (PfCDPK1): 101 nM; EC50 (PfCDPK4): 2850 nM
3 | CCC(=O)Nc1ccc(-c2nn(C(C)(C)C)c3ncnc(N)c23)cc1 [Compound 67, N-(4-(4-amino-1-tert-butyl-1H-pyrazolo[3,4-d]pyrimidin-3-yl)phenyl)propionamide] | 0.196 | 0.822 |  | EC50 (PfCDPK1): 325 nM; EC50 (PfCDPK4): 1990 nM
4 | Cc1ccc(-c2nn(C(C)C)c3ncnc(N)c23)cc1C [Compound 7h, 3-(3,4-dimethylphenyl)-1-isopropyl-1H-pyrazolo[3,4-d]pyrimidin-4-amine] | 0.009 |  | 0.022 | 
5 | Cc1cc(-c2nn(C(C)C)c3ncnc(N)c23)ccc1F [Compound 7i, 3-(4-fluoro-3-methylphenyl)-1-isopropyl-1H-pyrazolo[3,4-d]pyrimidin-4-amine] | 0.009 |  |  | IC50 (CpCDPK1; read-out: IC50 (μM) CpCDPK1): 0.053 µM
6 | CC(C)(C)n1nc(-c2ccc(NC(=O)C3CCCCC3)cc2)c2c(N)ncnc21 [Compound 64, N-(4-(4-amino-1-tert-butyl-1H-pyrazolo[3,4-d]pyrimidin-3-yl)phenyl)cyclohexanecarboxamide] | 0.143 | 0.928 |  | EC50 (PfCDPK1): 128 nM; EC50 (PfCDPK4): 1080 nM
7 | C#CCn1nc(Cc2cccc3ccccc23)c2c(N)ncnc21 [Compound 5b, 3-(naphthalen-1-ylmethyl)-1-(prop-2-ynyl)-1H-pyrazolo[3,4-d]pyrimidin-4-amine] | 0.086 |  | 0.13 | 
8 | COc1ccc(-c2nn(C(C)C)c3ncnc(N)c23)cc1OC [Compound 7k, 3-(3,4-dimethoxyphenyl)-1-isopropyl-1H-pyrazolo[3,4-d]pyrimidin-4-amine] |  | 0.173 | 0.17 | IC50 (TgCDPK1; read-out: TgCDPK1 IC50): 0.037 µM; EC50 (PfCDPK1): 1360 nM; EC50 (PfCDPK4): > 3000 nM
9 | CC(C)(C)C(=O)Nc1ccc(-c2nn(C(C)(C)C)c3ncnc(N)c23)cc1 [Compound 60, N-(4-(4-amino-1-tert-butyl-1H-pyrazolo[3,4-d]pyrimidin-3-yl)phenyl)pivalamide] | 0.0666 | 0.929 |  | EC50 (PfCDPK1): 66.4 nM; EC50 (PfCDPK4): 326 nM
10 | CCCC(=O)Nc1ccc(-c2nn(C(C)(C)C)c3ncnc(N)c23)cc1 [Compound 61, N-(4-(4-amino-1-tert-butyl-1H-pyrazolo[3,4-d]pyrimidin-3-yl)phenyl)butyramide] | 0.0684 | 0.927 |  | EC50 (PfCDPK1): 71.4 nM; EC50 (PfCDPK4): 515 nM
11 | CC(C)n1nc(-c2cccc(OCc3ccccc3Cl)c2)c2c(N)ncnc21 [Compound 21, 3-(3-(2-chlorobenzyloxy)phenyl)-1-isopropyl-1H-pyrazolo[3,4-d]pyrimidin-4-amine] | > 3 | > 3 |  | 
12 | CC(C)CC(=O)Nc1ccc(-c2nn(C(C)(C)C)c3ncnc(N)c23)cc1 [Compound 62, N-(4-(4-amino-1-tert-butyl-1H-pyrazol[3,4-d]pyrimidin-3-yl)phenyl)-3-methylbutanamide] | 0.0409 | 0.692 |  | EC50 (PfCDPK1): 37.7 nM; EC50 (PfCDPK4): 140 nM
13 | CC(C)n1nc(-c2cccc3ccccc23)c2c(N)ncnc21 [Compound 7o, 1-isopropyl-3-(naphthalen-1-yl)-1H-pyrazolo[3,4-d]pyrimidin-4-amine] | 0.326 |  | 0.62 | 
14 | NC(=O)Cn1nc(Cc2cccc3ccccc23)c2c(N)ncnc21 [Compound 5c, 2-(4-amino-3-(naphthalen-1-ylmethyl)-1H-pyrazolo[3,4-d]pyrimidin-1-yl)acetamide] | 1.92 | 2.04 | 2 | 
15 | CC(C)n1nc(-c2ccc3c(c2)CCCO3)c2c(N)ncnc21 [Compound 7w, 3-(chroman-6-yl)-1-isopropyl-1H-pyrazolo[3,4-d]pyrimidin-4-amine] | 0.017 |  | 0.11 | 
16 | CC(C)n1nc(-c2cncnc2)c2c(N)ncnc21 [Compound 18, 1-isopropyl-3-(pyrimidin-5-yl)-1H-pyrazolo[3,4-d]pyrimidin-4-amine] | > 3 | > 3 |  | 
17 | CS(=O)(=O)N1CCC(CCn2nc(Cc3cccc4ccccc34)c3c(N)ncnc32)CC1 [Compound 5r, 1-(2-(1-(methylsulfonyl)piperidin-4-yl)ethyl)-3-(naphthalen-1-ylmethyl)-1H-pyrazolo[3,4-d]pyrimidin-4-amine] | 0.117 | 0.194 | 0.2 | 
18 | COc1cc(COc2cccc(-c3nn(C(C)C)c4ncnc(N)c34)c2)cc(OC)c1 [Compound 22, 3-(3-(3,5-dimethoxybenzyloxy)phenyl)-1-isopropyl-1H-pyrazolo[3,4-d]pyrimidin-4-amine] | 1.14 | > 3 |  | 

Row | Compound | IC50 (TgCDPK1; read-out: IC50 (μM) TgCDPK1) [µM] | IC50 (CpCDPK1; [1]) [µM] | IC50 (CpCDPK1; read-out: CpCDPK1 IC50) [µM] | further results
19 | COc1cc2ccccc2cc1-c1nn(C(C)C)c2ncnc(N)c12 [Compound 7s, 1-isopropyl-3-(3-methoxynaphthalen-2-yl)-1H-pyrazolo[3,4-d]pyrimidin-4-amine] | 0.863 | 0.591 | 0.6 | IC50 (TgCDPK1; read-out: TgCDPK1 IC50): 0.9 µM
20 | CC(=O)N1CCC(n2nc(Cc3cccc4ccccc34)c3c(N)ncnc32)CC1 [Compound 5j, 1-(4-(4-amino-3-(naphthalen-1-ylmethyl)-1H-pyrazolo[3,4-d]pyrimidin-1-yl)piperidin-1-yl)ethanone] | 0.091 | 0.103 | 0.1 | 
21 | Cn1nc(Cc2cccc3ccccc23)c2c(N)ncnc21 [Compound 5a, 1-methyl-3-(naphthalen-1-ylmethyl)-1H-pyrazolo[3,4-d]pyrimidin-4-amine] | 0.458 |  |  | IC50 (CpCDPK1; read-out: IC50 (μM) CpCDPK1): 0.413 µM
22 | CC(C)n1nc(-c2ccnc(Cl)c2)c2c(N)ncnc21 [Compound 19, 3-(2-chloropyridin-4-yl)-1-isopropyl-1H-pyrazolo[3,4-d]pyrimidin-4-amine] | 0.0638 | 0.37 |  | 
23 | Nc1ncnc2c1c(Cc1cccc3ccccc13)nn2Cc1c[nH]cn1 [Compound 31, 1-((1H-imidazol-4-yl)methyl)-3-(naphthalen-1-ylmethyl)-1H-pyrazolo[3,4-d]pyrimidin-4-amine] | 0.117 | 0.0936 |  | 
24 | Nc1ncnc2c1c(Cc1cccc3ccccc13)nn2Cc1ccccc1 [Compound 5e, 1-benzyl-3-(naphthalen-1-ylmethyl)-1H-pyrazolo[3,4-d]pyrimidin-4-amine] | 1.85 | > 3 |  | IC50 (CpCDPK1; Table 3, average of three assays ± (SEM), read-out: CpCDPK1 IC50): > 3 µM
25 | CC(C)n1nc(-c2cccc(Cl)c2)c2c(N)ncnc21 [Compound 7b, 3-(3-chlorophenyl)-1-isopropyl-1H-pyrazolo[3,4-d]pyrimidin-4-amine] | 0.02 | 0.115 | 0.12 | 
26 | COc1ccc(-c2nn(C(C)C)c3ncnc(N)c23)cc1OC(C)C [Compound 23, 3-(3-isopropoxy-4-methoxyphenyl)-1-isopropyl-1H-pyrazolo[3,4-d]pyrimidin-4-amine] | > 3 | > 3 |  | 
27 | CC(C)n1nc(-c2cccc3c2sc2ccccc23)c2c(N)ncnc21 [Compound 7x, 3-(dibenzo[b,d]thiophen-4-yl)-1-isopropyl-1H-pyrazolo[3,4-d]pyrimidin-4-amine] | > 3 | > 3 |  | IC50 (TgCDPK1; read-out: TgCDPK1 IC50): > 3 µM; IC50 (CpCDPK1; Table 4, average of three assays ± (SEM), read-out: CpCDPK1 IC50): > 3 µM
28 | CC(C)c1ccc(-c2nn(C(C)C)c3ncnc(N)c23)cc1 [Compound 7d, 1-isopropyl-3-(4-isopropylphenyl)-1H-pyrazolo[3,4-d]pyrimidin-4-amine] | 0.048 | 0.213 | 0.21 | 
29 | CC(=O)N1CCC(Cn2nc(Cc3cccc4ccccc34)c3c(N)ncnc32)CC1 [Compound 5k, 1-(4-((4-amino-3-(naphthalen-1-ylmethyl)-1H-pyrazolo[3,4-d]pyrimidin-1-yl)methyl)piperidin-1-yl)ethanone] | 0.208 |  |  | IC50 (CpCDPK1; read-out: IC50 (μM) CpCDPK1): 0.36 µM
30 | Nc1ncnc2c1c(Cc1cccc3ccccc13)nn2C1CCOCC1 [Compound 15, 3-(naphthalen-1-ylmethyl)-1-(tetrahydro-2H-pyran-4-yl)-1H-pyrazolo[3,4-d]pyrimidin-4-amine] | 0.149 | 0.265 |  | 
31 | CS(=O)(=O)N1CCC(Cn2nc(Cc3cccc4ccccc34)c3c(N)ncnc32)CC1 [Compound 5q, 1-((1-(methylsulfonyl)piperidin-4-yl)methyl)-3-(naphthalen-1-ylmethyl)-1H-pyrazolo[3,4-d]pyrimidin-4-amine] | 0.563 | 0.691 | 0.7 | 
32 | Cc1ccc(-c2nn(C(C)C)c3ncnc(N)c23)cc1 [Compound 7f, 1-isopropyl-3-p-tolyl-1H-pyrazolo[3,4-d]pyrimidin-4-amine] | 0.013 |  |  | IC50 (CpCDPK1; read-out: IC50 (μM) CpCDPK1): 0.087 µM
33 | CC(C)n1nc(Cc2ccc3ccccc3c2)c2c(N)ncnc21 [Compound 14, 1-isopropyl-3-(naphthalen-2-ylmethyl)-1H-pyrazolo[3,4-d]pyrimidin-4-amine] | 0.627 | 0.953 |  | 
34 | CC(C)n1nc(-c2cccnc2)c2c(N)ncnc21 [Compound 16, 1-isopropyl-3-(pyridin-3-yl)-1H-pyrazolo[3,4-d]pyrimidin-4-amine] | 0.961 | > 3 |  | 
35 | CC(=O)N1CCC(CCn2nc(Cc3cccc4ccccc34)c3c(N)ncnc32)CC1 [Compound 5l, 1-(4-(2-(4-amino-3-(naphthalen-1-ylmethyl)-1H-pyrazolo[3,4-d]pyrimidin-1-yl)ethyl)piperidin-1-yl)ethanone] | 0.104 |  |  | IC50 (CpCDPK1; read-out: IC50 (μM) CpCDPK1): 0.179 µM
